Results as given in patent US20250213489A1, “OSMOTIC TABLETS OF DEXPRAMIPEXOLE AND METHODS OF MANUFACTURING AND USE THEREOF” (Areteia Therapeutics, Inc., priority 2023, published 2025).
Structures can show the parent of a compound that is named as a salt.

Legend:
[1] = during tablet manufacture and storage
From the text: The chiral purity might be determined by analyzing a sample of dexpramipexole, or a pharmaceutically acceptable salt thereof, by high performance liquid chromatography (HPLC).

[2] = test system: dopamine receptors; conditions: cited from earlier work
[3] = test system: eosinophils; conditions: human blood and tissues; cited from earlier work

Compound	chiral purity over time [1]	affinity for dopamine receptors compared to pramipexole [2]	effect on eosinophil counts [3]
CCCN[C@@H]1CCc2nc(N)sc2C1 [dexpramipexole dihydrochloride monohydrate]	did not change over time		
CCCN[C@@H]1CCc2nc(N)sc2C1 [dexpramipexole, (6R)-2-amino-4,5,6,7-tetrahydro-6-(propylamino)benzothiazole]		greatly reduced	selectively and significantly lower eosinophil counts
